Read-outs that look alike come from different tables or passages of the source.
Columns and labels:
[1] = pKa of reagents (reagent properties used in the model of FIG. 2a); type: physicochemical; conditions: reagent property used in the model of FIG. 2a
[2] = Molar absorptivity ε of acid and base forms of reagents at 570 nm and 445 nm; type: physicochemical; conditions: for ε at 445 nm (λ1), Acid / ε at 570 nm (λ2), Acid: acid form; for ε at 445 nm (λ1), Acid / ε at 445 nm (λ1), Base / ε at 570 nm (λ2), Base: in M-1·cm-1 (unit assumed); for ε at 445 nm (λ1), Base / ε at 570 nm (λ2), Base: base form (sodium salt of the reagent)

O=S1(=O)OC(c2ccc(O)cc2)(c2ccc(O)cc2)c2ccccc21 [Phenol Red]
pKa ([1]; read-out: pKa): 7.79

O=S1(=O)OC(c2cc(Br)c(O)c(Br)c2)(c2cc(Br)c(O)c(Br)c2)c2ccccc21 [Bromophenol Blue]
pKa [1]: 4.11 | ε at 445 nm (λ1), Acid [2]: 21711 | ε at 570 nm (λ2), Acid [2]: 378 M⁻¹ cm⁻¹ | ε at 445 nm (λ1), Base [2]: 1981 | ε at 570 nm (λ2), Base [2]: 46859

O=S1(=O)OC(c2ccc(O)c(Cl)c2)(c2ccc(O)c(Cl)c2)c2ccccc21 [Chlorophenol Red]
pKa [1]: 6.11 | ε at 445 nm (λ1), Acid [2]: 18136 | ε at 570 nm (λ2), Acid [2]: 58 M⁻¹ cm⁻¹ | ε at 445 nm (λ1), Base [2]: 1985 | ε at 570 nm (λ2), Base [2]: 54247
